Data reported in patent US20110318393A1, “Substituted Pyrazole Compounds” (MIIKANA THERAPEUTICS, INC., priority 2008, published 2011).

Experiments:
Type in all cases: biochemical
[1] = biological target: T1, N-terminal His-tagged human Src (Homo sapiens, UniProt P12931); assay: Src kinase inhibition assay (33P-ATP filter assay); conditions: 40 minutes, room temperature; less than or equal to 100 nM
T1 construct: His (N); purchased Upstate USA Inc, Charlottesville, Va
Experimental: Compounds were assayed for Src kinase inhibitory activity using N-terminal His-tagged human Src (Upstate USA Inc, 706 Forest Street, Charlottesville, Va.). Serial dilutions of compound were assayed in a final reaction volume of 25 μL by incubating a solution of the above Src kinase (5-10 mU), 8 mM MOPS (3-(N-morpholino)propanesulfonic acid) pH 7.0, 0.2 mM EDTA (ethylenediamine tetracetic acid), 250 μM amino acid sequence KVEKIGEGTYGVVYK (Upstate USA Inc, 706 Forest Street, Charlottesville, Va.), and 10 mM magnesium acetate and [γ-^33P-ATP] (specific activity of about 500 cpm/pmol, concentration as required). The reaction was initiated by the addition of the magnesium acetate and [γ-^33P-ATP] mixture. After incubation for 40 minutes at room temperature, the reaction was stopped by the addition of 5 μL of a 3% phosphoric acid solution. A 10 μL aliquote of the reaction was then spotted onto a P30 filtermat (PerkinElmer, Wellesley, Mass.) and washed three times for five minutes in 75 mM phosphoric acid and once in methanol prior to drying and scintillation counting. Inhibition of Src activity was determined by comparison to assays that contained no inhibitor.

recombinant Aurora A = biological target: T2, recombinant Aurora A (Homo sapiens, UniProt O14965); assay: Aurora A (Aurora 2) inhibition assay, Z'-Lyte kinase assay; conditions: ATP 10 μM, 1 h; less than or equal to 100 nM
T2 construct: purchased Upstate, Lake Placid, N.Y
T2 sequence (O14965 1-403): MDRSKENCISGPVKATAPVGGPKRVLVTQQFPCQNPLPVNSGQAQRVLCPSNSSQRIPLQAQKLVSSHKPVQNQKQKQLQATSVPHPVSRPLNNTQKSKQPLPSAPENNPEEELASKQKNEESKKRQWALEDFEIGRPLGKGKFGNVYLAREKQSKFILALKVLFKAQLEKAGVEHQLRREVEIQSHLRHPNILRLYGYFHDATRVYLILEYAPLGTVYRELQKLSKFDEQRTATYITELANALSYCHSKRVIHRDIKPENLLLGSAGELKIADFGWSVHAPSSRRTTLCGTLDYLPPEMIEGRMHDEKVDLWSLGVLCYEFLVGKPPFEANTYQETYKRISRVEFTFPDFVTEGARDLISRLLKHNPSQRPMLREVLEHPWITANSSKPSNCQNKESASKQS
Experimental: Compounds were tested for their potency against recombinant Aurora A (Upstate, Lake Placid, N.Y.) using the PanVera Z′-Lyte kinase assay kit-Ser/Thr 1 peptide (Invitrogen, Carlsbad, Calif.). Assays were carried out in kinase assay buffer (50 mM HEPES, pH 7.5, 10 mM MgCl2, 5 mM EGTA, 0.05% Brij-35, 2 mM DTT). Test compounds were initially dissolved in DMSO at 100× the highest tested concentration, then serially diluted to 4× test concentrations in kinase assay buffer. Next, Aurora A (final concentration 200-500 ng/mL), Z′-Lyte Ser/Thr 1 peptide (final concentration 2 μM) and ATP (final concentration 10 μM) were added according to the manufacturer's instructions. Assays were carried out in half-area 96-well white polystyrene assay plates (Corning, Corning, N.Y.) in a final volume of 20 μl. The reaction was allowed to proceed for 1 h at room temperature in the dark, at which point the development reagent and stop reagent were added according to the manufacturer's instructions. Coumarin (Ex. 400 nm, Em. 465 nm) and fluorescein (Ex. 400 nm, Em. 565 nm) fluorescence values were measured on a SpectraFluor Plus plate reader (Tecan, Durham, N.C.). The emission ratio (coumarin/fluorescein) was determined and used to calculate the percent phosphorylation for each well. Wells containing substrate but no kinase and wells containing a phosphopeptide control were used to set 0% and 100% phosphorylation values, respectively. Typically 20-40% of the substrate was phosphorylated in wells without inhibitor. Dose-response curves of relative Aurora A activity vs. inhibitor concentration were plotted with Grafit (Erithacus Software, Horley, Surrey, UK).

[2] = biological target: T3, N-terminal GST-tagged recombinant human Flt3, residues 564-end (Homo sapiens, UniProt P36888); assay: Flt3 kinase inhibition assay (33P-ATP filter assay); conditions: 40 minutes, room temperature; less than or equal to 100 nM
T3 construct: recombinant human Flt3, residues 564-end; GST (N); purchased Upstate USA Inc, Charlottesville, Va
T3 sequence (P36888 564-993 limits assumed): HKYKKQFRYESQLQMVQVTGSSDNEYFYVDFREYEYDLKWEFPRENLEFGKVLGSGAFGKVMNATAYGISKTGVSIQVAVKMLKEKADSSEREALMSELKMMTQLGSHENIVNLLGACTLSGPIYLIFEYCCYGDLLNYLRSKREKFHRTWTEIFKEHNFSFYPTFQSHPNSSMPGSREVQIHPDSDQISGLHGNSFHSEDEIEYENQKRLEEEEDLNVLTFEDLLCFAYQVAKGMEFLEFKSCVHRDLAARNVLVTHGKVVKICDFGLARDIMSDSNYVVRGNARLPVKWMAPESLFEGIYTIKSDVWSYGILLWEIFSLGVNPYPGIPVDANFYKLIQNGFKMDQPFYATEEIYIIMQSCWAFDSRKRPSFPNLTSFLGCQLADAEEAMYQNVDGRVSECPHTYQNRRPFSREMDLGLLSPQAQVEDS
Experimental: (§1) Compounds were assayed for Flt3 kinase inhibitory activity using N-terminal GST-tagged recombinant human Flt3, residues 564-end (Upstate USA Inc, 706 Forest Street, Charlottesville, Va.). Serial dilutions of compound were assayed in a final reaction volume of 25 μL by incubating a solution of the above Flt3 kinase (5-10 mU), 8 mM MOPS (3-(N-morpholino)propanesulfonic acid) pH 7.0, 0.2 mM EDTA (ethylenediamine tetracetic acid), 50 μM amino acid sequence EAIYAAPFAKKK (Upstate USA Inc, 706 Forest Street, Charlottesville, Va.), and 10 mM magnesium acetate and [γ-^33P-ATP] (specific activity of about 500 cpm/pmol, concentration as required). The reaction was initiated by the addition of the magnesium acetate and [γ-^33P-ATP] mixture. After incubation for 40 minutes at room temperature, the reaction was stopped by the addition of 5 μL of a 3% phosphoric acid solution. A 10 μL aliquote of the reaction was then spotted onto a P30 filtermat (PerkinElmer, Wellesley, Mass.) and washed three times for five minutes in 75 mM phosphoric acid and once in methanol prior to drying and scintillation counting. Inhibition of Flt3 activity was determined by comparison to assays that contained no inhibitor.

[3] = biological target: T4, N-terminal His6-tagged recombinant human KDR, residues 790-end (Homo sapiens, UniProt P35968); assay: KDR kinase inhibition assay (33P-ATP filter assay); conditions: 40 minutes, room temperature; less than or equal to 100 nM
T4 construct: recombinant human KDR, residues 790-end; His6 (N); purchased Upstate USA Inc, Charlottesville, Va
Experimental: as §1, with “KDR” for “Flt3”, “His6-tagged” for “GST-tagged”, “KDR,” for “Flt3,”, “790-end” for “564-end”, “0.33 mg/mL myelin basic protein” for “50 μM amino acid sequence EAIYAAPFAKKK”

T1 sequence (P12931 whole entry): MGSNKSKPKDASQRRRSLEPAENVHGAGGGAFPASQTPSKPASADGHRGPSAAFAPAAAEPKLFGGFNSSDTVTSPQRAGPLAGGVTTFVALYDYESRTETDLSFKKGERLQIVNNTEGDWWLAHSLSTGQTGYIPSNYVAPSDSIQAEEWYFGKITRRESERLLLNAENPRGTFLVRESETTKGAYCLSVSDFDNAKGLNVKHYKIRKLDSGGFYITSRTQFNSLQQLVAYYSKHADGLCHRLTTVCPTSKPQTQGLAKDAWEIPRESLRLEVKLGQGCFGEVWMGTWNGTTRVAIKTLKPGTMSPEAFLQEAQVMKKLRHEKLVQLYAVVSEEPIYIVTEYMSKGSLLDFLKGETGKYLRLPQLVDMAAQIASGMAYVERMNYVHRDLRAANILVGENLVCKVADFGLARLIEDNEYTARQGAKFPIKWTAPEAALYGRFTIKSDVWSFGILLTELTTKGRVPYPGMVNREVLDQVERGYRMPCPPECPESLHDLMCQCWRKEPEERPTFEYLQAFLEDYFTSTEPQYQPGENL
T4 sequence (P35968 790-1356 limits assumed): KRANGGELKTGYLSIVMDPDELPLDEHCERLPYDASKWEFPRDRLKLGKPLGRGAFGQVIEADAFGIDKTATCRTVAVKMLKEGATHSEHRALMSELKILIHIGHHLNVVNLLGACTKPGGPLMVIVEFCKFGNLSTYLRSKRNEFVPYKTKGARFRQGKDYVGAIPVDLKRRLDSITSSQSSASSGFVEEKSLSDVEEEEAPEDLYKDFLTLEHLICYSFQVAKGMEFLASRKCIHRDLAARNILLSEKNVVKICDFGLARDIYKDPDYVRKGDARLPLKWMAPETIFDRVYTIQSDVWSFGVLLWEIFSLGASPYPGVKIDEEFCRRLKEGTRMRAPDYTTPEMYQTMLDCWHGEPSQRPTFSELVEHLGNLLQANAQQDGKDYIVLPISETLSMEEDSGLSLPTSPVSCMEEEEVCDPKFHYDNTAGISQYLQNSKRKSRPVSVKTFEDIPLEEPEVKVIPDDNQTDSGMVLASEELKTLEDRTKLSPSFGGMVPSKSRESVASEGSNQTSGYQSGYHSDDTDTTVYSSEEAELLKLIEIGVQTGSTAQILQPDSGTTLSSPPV

| IC50 [1] | IC50 (recombinant Aurora A) | IC50 [2] | IC50 [3] | SMILES |
| --- | --- | --- | --- | --- |
| ≤ 100 nM | ≤ 100 nM | ≤ 100 nM | ≤ 100 nM | Cc1cc(Nc2cc(N3CCC(N4CCCC4)CC3)nc(/C=C/c3ccccc3)n2)n[nH]1 [Compound 2, (E)-N-(5-methyl-1H-pyrazol-3-yl)-6-(4-(pyrrolidin-1-yl)piperidin-1-yl)-2-styrylpyrimidin-4-amine] |
| ≤ 100 nM | ≤ 100 nM | ≤ 100 nM | ≤ 100 nM | Cc1cc(Nc2cc(N3CC(N4CCOCC4)C3)nc(/C=C/c3ccccc3)n2)n[nH]1 [Compound 15, (E)-N-(5-methyl-1H-pyrazol-3-yl)-6-(3-morpholinoazetidin-1-yl)-2-styrylpyrimidin-4-amine] |
| ≤ 100 nM | ≤ 100 nM | ≤ 100 nM | ≤ 100 nM | COC1CCN(C2CN(c3cc(Nc4cc(C)[nH]n4)nc(/C=C/c4ccccc4)n3)C2)CC1 [Compound 1, (E)-6-(3-(4-methoxypiperidin-1-yl)azetidin-1-yl)-N-(5-methyl-1H-pyrazol-3-yl)-2-styrylpyrimidin-4-amine] |
| ≤ 100 nM | ≤ 100 nM | ≤ 100 nM | ≤ 100 nM | Cc1cc(Nc2cc(N3CCN(C4CCCCC4)CC3)nc(/C=C/c3ccccc3)n2)n[nH]1 [Compound 9, (E)-6-(4-cyclohexylpiperazin-1-yl)-N-(5-methyl-1H-pyrazol-3-yl)-2-styrylpyrimidin-4-amine] |
|  |  | ≤ 100 nM |  | Cc1cc(Nc2cc(N3CCN(c4ccc(C#N)cc4)CC3)nc(/C=C/c3ccccc3)n2)n[nH]1 [Compound 10, (E)-4-(4-(6-(5-methyl-1H-pyrazol-3-ylamino)-2-styrylpyrimidin-4-yl)piperazin-1-yl)benzonitrile] |
|  |  | ≤ 100 nM |  | Cc1cc(Nc2cc(N3CCN(c4ccccc4)CC3)nc(/C=C/c3ccccc3)n2)n[nH]1 [Compound 8, (E)-N-(5-methyl-1H-pyrazol-3-yl)-6-(4-phenylpiperazin-1-yl)-2-styrylpyrimidin-4-amine] |
| ≤ 100 nM | ≤ 100 nM | ≤ 100 nM | ≤ 100 nM | Cc1cc(Nc2cc(N3CCC(CN4CCCCC4)CC3)nc(/C=C/c3ccccc3)n2)n[nH]1 [Compound 30] |
| ≤ 100 nM | ≤ 100 nM | ≤ 100 nM | ≤ 100 nM | Cc1cc(Nc2cc(N3CCN(CCN4CCOCC4)CC3)nc(/C=C/c3ccccc3)n2)n[nH]1 [Compound 13, (E)-N-(5-methyl-1H-pyrazol-3-yl)-6-(4-(2-morpholinoethyl)piperazin-1-yl)-2-styrylpyrimidin-4-amine] |
|  | ≤ 100 nM | ≤ 100 nM |  | Cc1cc(Nc2cc(N3CCN(c4ccccn4)CC3)nc(/C=C/c3ccccc3)n2)n[nH]1 [Compound 14, (E)-N-(5-methyl-1H-pyrazol-3-yl)-6-(4-(pyridin-2-yl)piperazin-1-yl)-2-styrylpyrimidin-4-amine] |
|  |  | ≤ 100 nM | ≤ 100 nM | Cc1cc(Nc2cc(N3CCN(c4ccc([N+](=O)[O-])cc4)CC3)nc(/C=C/c3ccccc3)n2)n[nH]1 [Compound 12, (E)-N-(5-methyl-1H-pyrazol-3-yl)-6-(4-(4-nitrophenyl)piperazin-1-yl)-2-styrylpyrimidin-4-amine] |
| ≤ 100 nM | ≤ 100 nM | ≤ 100 nM | ≤ 100 nM | Cc1cc(Nc2cc(N3CC(N4CCCCC4)C3)nc(/C=C/c3ccccc3)n2)n[nH]1 [Compound 18, (E)-N-(5-methyl-1H-pyrazol-3-yl)-6-(3-(piperidin-1-yl)azetidin-1-yl)-2-styrylpyrimidin-4-amine] |
|  |  | ≤ 100 nM |  | Cc1cc(Nc2cc(N3CCC(O)(c4ccc(Cl)cc4)CC3)nc(/C=C/c3ccccc3)n2)n[nH]1 [Compound 11, (E)-4-(4-chlorophenyl)-1-(6-(5-methyl-1H-pyrazol-3-ylamino)-2-styrylpyrimidin-4-yl)piperidin-4-ol] |
|  | ≤ 100 nM | ≤ 100 nM |  | Cc1cc(Nc2cc(N3CCC(O)(Cc4ccccc4)CC3)nc(/C=C/c3ccccc3)n2)n[nH]1 [Compound 16] |
| ≤ 100 nM | ≤ 100 nM | ≤ 100 nM | ≤ 100 nM | Cc1cc(Nc2cc(N3CCN(CC4CCCO4)CC3)nc(/C=C/c3ccccc3)n2)n[nH]1 (stereo not drawn) [Compound 24, (E)-N-(5-methyl-1H-pyrazol-3-yl)-2-styryl-6-(4-((tetrahydrofuran-2-yl)methyl)piperazin-1-yl)pyrimidin-4-amine] |
| ≤ 100 nM | ≤ 100 nM | ≤ 100 nM | ≤ 100 nM | Cc1cc(Nc2cc(N3CC(N4CCC(O)CC4)C3)nc(/C=C/c3ccccc3)n2)n[nH]1 [Compound 21, (E)-1-(1-(6-(5-methyl-1H-pyrazol-3-ylamino)-2-styrylpyrimidin-4-yl)azetidin-3-yl)piperidin-4-ol] |
